What all share (assay type): cell-based
Assay [1] deals with MCF7. The assay is described as follows: colony formation (plating efficiency) cell survival assay, standard protocol of Examples 1-8. To be noted: Homo sapiens; survival of cultured breast cancer cells MCF7; 4 hours drug exposure, colonies counted day 15-20; read-out: ED50 (the source's name). The protocol: (§1) Human breast cancer cell line MCF7 was grown in Richter's Improved Modified Eagle's Medium supplemented with 10% fetal bovine serum (FBS) and 2.2 g/L sodium bicarbonate. Human brain cancer cell line U251MG-NCI was grown in Dulbecco's Modified Eagle's Medium supplemented with 10% FBS. Human lung cancer cell line A549 was grown in Ham's F-12K medium (Fisher Scientific, Itasca, Illinois), supplemented with 10% FBS and 2 mM L-glutamine. Human colon cancer cell line HT29 was cultured in McCoy's 5A medium (Gibco, BRL, Gaithersburg, Maryland), supplemented with 10% FBS. Human prostate cancer cell line PC3 was grown in Dulbecco's Modified Eagles Medium supplemented with 5% FBS. The A549 and MCF7 cell lines were cultured in 100 units/mL penicillin and 100 µg/mL streptomycin. HT29 and U251MG cell lines were grown in 50 µg/mL gentamycin. PC3 cell lines were maintained in 1% antibiotic-antimycotic solution (Sigma, St. Louis, Missouri). The cell cultures were maintained at 37°C in 5% CO2/95% humidified air. All cell cultures are available from the American Type Culture Collection, Rockville, Maryland.
Ten standard culture flasks for each drug to be tested were plated with 5 x 10^5 cells of a given type in 5 mL of media and allowed to incubate for 16-24 hours at 37°C.
Fresh stocks of the compounds to be evaluated are prepared. For each drug, two of the ten culture flasks prepared on Day 1 are used as controls. The control flasks are treated with solvent only. Four flasks for each compound are then treated with serially-diluted concentrations of the compound. The remaining flasks are left untouched. The cells are incubated for 4 hours at 37°C.
After 4 hours the control flasks are counted (2 counts for each flask) and the cells per mL calculated based on the average of the control counts. The cells are then re-plated into six 60 mm dishes for each flask from dilutions based on the cells/mL of the control. (In the various test runs, cell concentrations ranged from approximately 50 to approximately 800 cells per mL.)
The cells are monitored for colony formation. When visible, the cells are stained with 0.5% crystal violet (in 95% EtOH) and counted. The plating efficiency for each dish is then calculated. The plating efficiencies of the six dishes for each flask are averaged and the standard deviation is calculated. The fraction of cell survival at each concentration is determined based on the controls.

Assay [2] deals with A549. As to the kind of experiment: MTT assay, percent cell survival. To be noted: Homo sapiens, A549, 144 h; drug concentration that killed 50% of the cultured cells; MTT six days after drug treatment; read-out: ID50(µM) A549. The protocol:
as §1
(§2) Here, a conventional MTT assay was used to evaluate percent cell survival. Exponentially growing monolayer cells were plated in 96-well plates at a density of 500 cells per well and allowed to grow for 24 hours. Serial dilutions of the drugs were added to the wells. Six days after drug treatment, 25 µl of MTT solution (5 mg/ml) was added to each well and incubated for 4 hours at 37°C. Then 100 µl of lysis buffer (20% sodium dodecyl sulfate, 50% DMF, and 0.8% acetic acid, pH 4.7) was added to each well and incubated for an additional 22 hours. A microplate reader ("EMAX"-brand, Molecular Devices, Sunnyvale, California) set at 570 nm was used to determine the optical density of the cultures. Results are expressed as a ratio of the optical density in drug-treated wells to the optical density in wells treated with vehicle only.
(§3) The ID50 is the drug concentration that killed 50% of the cultured cells.

Assay [3] concerns HT-29. As to the kind of experiment: MTT assay, percent cell survival. To be noted: Homo sapiens, HT-29, 144 h; drug concentration that killed 50% of the cultured cells; MTT six days after drug treatment; read-out: ID50(µM) HT-29. As to the method: as §1, §2, §3
Assay [4] relates to MCF7. The assay is described as follows: MTT assay, percent cell survival. To be noted: Homo sapiens, MCF7, 144 h; drug concentration that killed 50% of the cultured cells; MTT six days after drug treatment; read-out: ID50(µM) MCF7. The protocol:
as §1, §2, §3

Assay [5] deals with PC-3. As to the kind of experiment: MTT assay, percent cell survival. Particulars: Homo sapiens, PC-3, 144 h; drug concentration that killed 50% of the cultured cells; MTT six days after drug treatment; read-out: ID50(µM) PC-3. The protocol:
as §1, §2, §3

Assay [6] concerns U251MG NCl. As to the kind of experiment: MTT assay, percent cell survival. Particulars: Homo sapiens, U-251, 144 h; drug concentration that killed 50% of the cultured cells; MTT six days after drug treatment; read-out: ID50(µM) U251MG NCl. The protocol:
as §1, §2, §3

Counter-ions that a name gives are not always drawn.

As for `CCNCCCNC[C@@H]1C[C@@H]1CNCCCNCC` [SL-11037, N-Ethyl-N'-(2-(3'-ethylamino-propylaminomethyl)-cis-cyclopropylmethyl)-propane 1,3-diamine tetrahydrochloride], in assay [1], the EC50 was found to be 1640 nM. In addition, the IC50 in assay [2] was 0.12 µM; in assay [3], 1.6 µM; in assay [4], over 31.2 µM; in assay [5], 7.4 µM.
The matching figures for `CCNCCCNCC1CC1CNCCCNCC` (stereo not drawn) [SL-11038, N-Ethyl-N'-(2-(3'-ethylamino-propylaminomethyl)-trans-cyclopropylmethyl)-propane-1,3-diamine tetrahydrochloride]: 1340 nM, 0.25 µM, 1.4 µM, over 31.2 µM and 12.4 µM.
On to `CCNCCCNC[C@H]1CC[C@H]1CNCCCNCC` [SL-11043, N-Ethyl-N'-(2-(3'-ethylamino-propylaminomethyl)-cis-cyclobutylmethyl)-propanel,3-diamine tetrahydrochloride], for which the EC50 in assay [1] came out at 1640 nM. Further, the IC50 in assay [3] was 1.5 µM; in assay [4], 25.5 µM; in assay [5] it was over 31.2 µM.
Consider `CCNCCCNCC1CCC1CNCCCNCC` (stereo not drawn) [SL-11044, N-Ethyl-N'-(2-(3'-ethylamino-propylaminomethyl)-trans-cyclobutylmethyl)-propane1,3-diaminetetrahydrochloride], for which the EC50 in assay [1] is 1790 nM. The IC50 was 1.6 µM in assay [3], over 31.2 µM in assay [4], over 31.2 µM in assay [5] and 0.12 µM in assay [6].
As for `CCNCCCNC/C=C\CNCCCNCC` [SL-11047, N,N^1-bis(3-ethylaminapropyl)-(Z)-but-2-ene-1,4-diamine tetrahydrochloride], in assay [1], the EC50 was 1490 nM. Further, the IC50 turned out to be 0.25 µM in assay [2]; 1.6 µM in assay [3]; 9.5 µM in assay [4]; 3.6 µM in assay [5]; 0.55 µM in assay [6].
Take `CCNCCCNC/C=C/CNCCCNCC` [SL-11048, N,Nl-bis(3-ethylaminopropyl)-(E)-but-2-ene-1,4-diamine tetrahydrochloride, reference compound]: in assay [1], the EC50 was 1490 nM. Further, the IC50 in assay [2] is 0.26 µM; in assay [3], 1.4 µM; in assay [4] it was over 31.2 µM; in assay [5], 1.4 µM; in assay [6], 2 µM.

Source of the values: patent EP0934249B1, “CONFORMATIONALLY RESTRICTED POLYAMINES AND THEIR USE AS ANTINEOPLASTIC AGENTS” (WISCONSIN ALUMNI RESEARCH FOUNDATION, priority 1996, dated 1998).
